{"source": "patent US5880152A", "about": "“Butyrate prodrugs derived from lactic acid” (Vertex Pharmaceuticals, Inc., priority 1997, dated 1999)", "key": {"[1]": {"settings": "rhesus monkey, in vivo"}, "[2]": {"settings": "in vivo; cited from earlier work"}, "γ globin chain": {"test_system": "γ globin chain", "experiment": "Efficacy study in anemic rhesus monkeys: % γ globin chain (HPLC)", "type": "in vivo, rhesus monkey (anemic)", "description": "(§1) Fetal hemoglobin cells (F cells), Hemoglobin F level in total Hemoglobin (% Hb F) and % γ globin chain levels were monitored before and after each of the two phases. % F cells were measured according to the protocol described in Betke et al, Blut., 4, pp. 241-9 (1958). % Hb F and % γ globin chain synthesis were measured using High Performance Liquid Chromatography (HPLC) according to the protocol described in Huisman, J. Chromagtogr., 418, pp. 277 (1987)"}, "fetal hemoglobin": {"test_system": "fetal hemoglobin", "settings": "sickle cell anemia patients; cited from earlier work"}, "[3]": {"test_system": "Fetal hemoglobin cells (F cells)", "experiment": "Efficacy study in anemic rhesus monkeys: % F cells", "type": "in vivo, rhesus monkey (anemic)", "description": "Each group was studied in two phases, as shown below.\nPhase I of the efficacy study.\nI 2 Hydroxyurea 50 mg/kg/day\nPhase II of the efficacy study."}, "Hemoglobin F": {"test_system": "Hemoglobin F", "experiment": "Efficacy study in anemic rhesus monkeys: % Hb F (HPLC)", "type": "in vivo, rhesus monkey (anemic)", "description": "as §1"}, "[4]": {"test_system": "Cultured Erythroleukemic Cells", "settings": "in vitro; cited from earlier work"}, "leukemia": {"test_system": "leukemia", "settings": "cited from earlier work"}, "[5]": {"experiment": "Triglycerides and ALT in the efficacy study", "settings": "three groups, prior to or during the two phases"}, "tumor, leukemia": {"test_system": "tumor, leukemia", "settings": "mice; cited from earlier work"}, "[6]": {"test_system": "retinoblastoma cell lines", "settings": "cited from earlier work"}, "[7]": {"test_system": "urokinase plasminogen activator and its receptor mRNA", "settings": "colon cancer cell lines; cited from earlier work"}, "pancreatic cancel cells": {"test_system": "pancreatic cancel cells", "settings": "pancreatic cancer cells; cited from earlier work"}, "[8]": {"test_system": "colorectal carcinoma cell lines", "settings": "cited from earlier work"}}, "note": "Where two headings read alike, the source gives them in different places.", "data": [{"smiles": "NC(=O)NO", "note": "[Hydroxyurea, hydroxyurea]", "values": [{"measurement": "levels of ALT", "setting": "[1]", "value": "no detectable difference"}, {"measurement": "levels of the triglycerides", "setting": "[1]", "value": "no detectable difference"}, {"measurement": "toxicity", "setting": "[2]", "value": "potentially limited by myelotoxicity and the risk of carcinogenesis"}, {"measurement": "change in % γ-globin chain levels", "setting": "γ globin chain; Group I", "value": "measurable increase"}, {"measurement": "fetal hemoglobin production", "setting": "fetal hemoglobin", "value": "stimulates fetal hemoglobin production"}, {"measurement": "sickling crisis", "setting": "fetal hemoglobin", "value": "reduces sickling crisis"}, {"measurement": "% F cell count", "setting": "[3]; animal 1, group I, end of Phase I (hydroxyurea 50 mg/kg/day, 5 weeks), before Phase I 8-10", "value": 25, "unit": "%"}, {"measurement": "change in % Hb F", "setting": "Hemoglobin F; Group I", "value": "measurable increase"}]}, {"smiles": "CCCC(=O)O", "note": "[butyric acid]", "values": [{"measurement": "cell differentiation", "setting": "[4]", "value": "induces cell differentiation"}, {"measurement": "effect in leukemia patients, by inducing cell differentiation", "setting": "leukemia", "value": "promising effects"}]}, {"smiles": "CCCC(=O)O[C@@H](C)C(=O)OCC", "note": "[Compound IIIc]", "values": [{"measurement": "levels of ALT", "setting": "[5]", "value": "no detectable difference"}, {"measurement": "levels of the triglycerides", "setting": "[5]", "value": "no detectable difference"}, {"measurement": "change in γ-globin chain levels", "setting": "γ globin chain; Groups II and III", "value": "no measurable change"}, {"measurement": "change in % F cells", "setting": "[3]; Groups II and III", "value": "small but significant increase"}, {"measurement": "change in HbF", "setting": "Hemoglobin F; Groups II and III", "value": "no measurable change"}]}, {"smiles": "CCCC(=O)O", "note": "[arginine butyrate]", "values": [{"measurement": "anti-tumor and anti-leukemia effects", "setting": "tumor, leukemia", "value": "exert anti-tumor and anti-leukemia effects in mice"}]}, {"smiles": "CCCC(=O)[O-].[Na+]", "note": "[Sodium butyrate]", "values": [{"measurement": "apoptosis", "setting": "[6]", "value": "induce apoptosis"}, {"measurement": "urokinase plasminogen activator and its receptor mRNA expression", "setting": "[7]", "value": "inhibit"}, {"measurement": "antigen expression", "setting": "pancreatic cancel cells", "value": "modify antigen expression"}, {"measurement": "apoptosis", "setting": "[8]", "value": "induce apoptosis"}]}]}
